Assay results as given in ChEMBL document CHEMBL4507317, “Data for DCP probe BAY-899” (2021).

How the values were obtained:
[1] = molecular target: BMP-2-inducible protein kinase (Homo sapiens) (UniProt Q9NSY1); details: Compound concentration 1000.0 nM
[2] = molecular target: Ephrin type-B receptor 1 (Homo sapiens) (UniProt P54762); details: Compound concentration 1000.0 nM
[3] = molecular target: Dual serine/threonine and tyrosine protein kinase (Homo sapiens) (UniProt Q6XUX3); details: Compound concentration 1000.0 nM
[4] = molecular target: Mitogen-activated protein kinase 9 (Homo sapiens) (UniProt P45984); details: Compound concentration 1000.0 nM
[5] = molecular target: Mitogen-activated protein kinase 14 (Homo sapiens) (UniProt Q16539); details: Compound concentration 1000.0 nM
[6] = molecular target: NUAK family SNF1-like kinase 1 (Homo sapiens) (UniProt O60285); details: Compound concentration 1000.0 nM
[7] = molecular target: Mitogen-activated protein kinase 1 (Homo sapiens) (UniProt P28482); details: Compound concentration 1000.0 nM
[8] = molecular target: Kappa-type opioid receptor (Homo sapiens, UniProt P41145); details: Compound concentration 10.0 uM
[9] = molecular target: D(2) dopamine receptor (Homo sapiens) (UniProt P14416); details: Compound concentration 10.0 uM
[10] = molecular target: Epidermal growth factor receptor (Homo sapiens) (UniProt P00533); details: Compound concentration 1000.0 nM
[11] = molecular target: Receptor tyrosine-protein kinase erbB-4 (Homo sapiens) (UniProt Q15303); details: Compound concentration 1000.0 nM
[12] = molecular target: Serine/threonine-protein kinase PAK 1 (Homo sapiens) (UniProt Q13153); details: Compound concentration 1000.0 nM
[13] = molecular target: Serine/threonine-protein kinase WNK2 (Homo sapiens) (UniProt Q9Y3S1); details: Compound concentration 1000.0 nM
[14] = molecular target: Casein kinase I isoform gamma-2 (Homo sapiens) (UniProt P78368); details: Compound concentration 1000.0 nM
[15] = molecular target: Serine/threonine-protein kinase D2 (Homo sapiens) (UniProt Q9BZL6); details: Compound concentration 1000.0 nM
[16] = molecular target: Cyclin-dependent kinase 4 (Homo sapiens) (UniProt P11802); details: Compound concentration 1000.0 nM
[17] = tested on: Hepatocyte growth factor receptor (Homo sapiens), P08581 [Y1235D]; details: Compound concentration 1000.0 nM
[18] = molecular target: Serine/threonine-protein kinase TBK1 (Homo sapiens) (UniProt Q9UHD2); details: Compound concentration 1000.0 nM
[19] = molecular target: cAMP-dependent protein kinase catalytic subunit PRKX (Homo sapiens) (UniProt P51817); details: Compound concentration 1000.0 nM
[20] = molecular target: Serine/threonine-protein kinase PAK 6 (Homo sapiens) (UniProt Q9NQU5); details: Compound concentration 1000.0 nM
[21] = molecular target: Tyrosine-protein kinase receptor Tie-1 (Homo sapiens) (UniProt P35590); details: Compound concentration 1000.0 nM
[22] = molecular target: G protein-coupled receptor kinase 3 (Homo sapiens) (UniProt P35626); details: Compound concentration 1000.0 nM
[23] = molecular target: Serine/threonine-protein kinase DCLK3 (Homo sapiens) (UniProt Q9C098); details: Compound concentration 1000.0 nM
[24] = molecular target: Death-associated protein kinase 3 (Homo sapiens) (UniProt O43293); details: Compound concentration 1000.0 nM
[25] = molecular target: Serine/threonine-protein kinase Nek11 (Homo sapiens) (UniProt Q8NG66); details: Compound concentration 1000.0 nM
[26] = molecular target: Serine/threonine-protein kinase ULK2 (Homo sapiens) (UniProt Q8IYT8); details: Compound concentration 1000.0 nM
[27] = molecular target: Calcium/calmodulin-dependent protein kinase type IV (Homo sapiens) (UniProt Q16566); details: Compound concentration 1000.0 nM
[28] = molecular target: LIM domain kinase 2 (Homo sapiens) (UniProt P53671); details: Compound concentration 1000.0 nM
[29] = molecular target: Serine/threonine-protein kinase pim-2 (Homo sapiens) (UniProt Q9P1W9); details: Compound concentration 1000.0 nM
[30] = molecular target: Dual specificity protein kinase CLK4 (Homo sapiens) (UniProt Q9HAZ1); details: Compound concentration 1000.0 nM
[31] = molecular target: Dual specificity protein kinase CLK3 (Homo sapiens) (UniProt P49761); details: Compound concentration 1000.0 nM
[32] = tested on: Proto-oncogene tyrosine-protein kinase receptor Ret (Homo sapiens), P07949 [V804M]; details: Compound concentration 1000.0 nM
[33] = tested on: Epidermal growth factor receptor (Homo sapiens), P00533 [T790M]; details: Compound concentration 1000.0 nM
[34] = molecular target: Ribosomal protein S6 kinase alpha-3 (Homo sapiens) (UniProt P51812); details: Compound concentration 1000.0 nM
[35] = molecular target: Mu-type opioid receptor (Homo sapiens) (UniProt P35372); details: Compound concentration 10.0 uM
[36] = molecular target: Ribosomal protein S6 kinase alpha-5 (Homo sapiens) (UniProt O75582); details: Compound concentration 1000.0 nM
[37] = molecular target: Serine/threonine-protein kinase DCLK1 (Homo sapiens) (UniProt O15075); details: Compound concentration 1000.0 nM
[38] = molecular target: Microtubule-associated serine/threonine-protein kinase 1 (Homo sapiens) (UniProt Q9Y2H9); details: Compound concentration 1000.0 nM
[39] = molecular target: Tyrosine-protein kinase Fyn (Homo sapiens) (UniProt P06241); details: Compound concentration 1000.0 nM
[40] = molecular target: Serine/threonine-protein kinase ULK3 (Homo sapiens) (UniProt Q6PHR2); details: Compound concentration 1000.0 nM
[41] = molecular target: Ribosomal protein S6 kinase alpha-6 (Homo sapiens) (UniProt Q9UK32); details: Compound concentration 1000.0 nM
[42] = molecular target: MAP/microtubule affinity-regulating kinase 3 (Homo sapiens) (UniProt P27448); details: Compound concentration 1000.0 nM
[43] = molecular target: Serine/threonine-protein kinase pim-3 (Homo sapiens) (UniProt Q86V86); details: Compound concentration 1000.0 nM
[44] = molecular target: Atypical kinase COQ8B, mitochondrial (Homo sapiens) (UniProt Q96D53); details: Compound concentration 1000.0 nM
[45] = molecular target: Death-associated protein kinase 2 (Homo sapiens) (UniProt Q9UIK4); details: Compound concentration 1000.0 nM

Sequence of Microtubule-associated serine/threonine-protein kinase 1 (Homo sapiens) (Q9Y2H9 whole entry, looked up): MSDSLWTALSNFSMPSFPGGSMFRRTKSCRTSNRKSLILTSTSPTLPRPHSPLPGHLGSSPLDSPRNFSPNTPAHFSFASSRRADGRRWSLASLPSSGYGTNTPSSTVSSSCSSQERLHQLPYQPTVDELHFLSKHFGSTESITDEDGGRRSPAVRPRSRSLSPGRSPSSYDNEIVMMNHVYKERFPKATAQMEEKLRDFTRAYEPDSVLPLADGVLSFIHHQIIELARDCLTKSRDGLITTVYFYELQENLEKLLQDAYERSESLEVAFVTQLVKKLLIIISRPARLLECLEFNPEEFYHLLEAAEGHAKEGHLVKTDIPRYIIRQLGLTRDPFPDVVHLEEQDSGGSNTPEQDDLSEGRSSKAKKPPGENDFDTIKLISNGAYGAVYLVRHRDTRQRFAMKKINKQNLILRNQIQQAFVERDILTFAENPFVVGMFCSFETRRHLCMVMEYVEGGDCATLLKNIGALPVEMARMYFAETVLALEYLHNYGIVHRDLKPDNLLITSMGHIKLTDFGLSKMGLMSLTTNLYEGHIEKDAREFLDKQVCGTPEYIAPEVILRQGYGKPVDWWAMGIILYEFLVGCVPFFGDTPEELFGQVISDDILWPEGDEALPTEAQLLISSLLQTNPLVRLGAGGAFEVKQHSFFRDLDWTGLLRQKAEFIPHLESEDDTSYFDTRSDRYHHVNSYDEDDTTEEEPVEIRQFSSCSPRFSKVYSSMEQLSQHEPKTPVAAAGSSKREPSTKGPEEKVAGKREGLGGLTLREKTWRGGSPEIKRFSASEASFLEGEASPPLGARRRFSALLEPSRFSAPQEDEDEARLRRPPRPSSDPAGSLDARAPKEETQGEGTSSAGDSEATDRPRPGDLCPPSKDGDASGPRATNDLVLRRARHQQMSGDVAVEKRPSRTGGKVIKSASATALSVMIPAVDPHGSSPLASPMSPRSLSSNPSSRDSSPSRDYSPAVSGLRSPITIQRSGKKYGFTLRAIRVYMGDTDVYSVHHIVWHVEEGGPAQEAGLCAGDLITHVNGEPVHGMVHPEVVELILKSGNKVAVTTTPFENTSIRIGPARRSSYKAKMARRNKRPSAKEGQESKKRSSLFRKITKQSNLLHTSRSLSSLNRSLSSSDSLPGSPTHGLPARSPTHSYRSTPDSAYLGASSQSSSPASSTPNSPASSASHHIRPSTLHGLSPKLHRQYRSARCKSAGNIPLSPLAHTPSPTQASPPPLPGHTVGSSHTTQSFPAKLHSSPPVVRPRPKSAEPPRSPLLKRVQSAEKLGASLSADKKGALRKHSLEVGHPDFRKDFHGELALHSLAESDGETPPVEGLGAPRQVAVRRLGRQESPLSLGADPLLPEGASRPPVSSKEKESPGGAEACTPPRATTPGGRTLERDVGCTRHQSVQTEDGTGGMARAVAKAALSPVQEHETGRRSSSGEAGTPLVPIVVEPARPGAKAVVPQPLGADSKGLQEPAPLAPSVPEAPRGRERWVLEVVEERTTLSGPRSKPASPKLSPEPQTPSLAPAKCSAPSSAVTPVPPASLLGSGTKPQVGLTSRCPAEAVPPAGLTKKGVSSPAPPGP
Sequence of Proto-oncogene tyrosine-protein kinase receptor Ret (Homo sapiens), P07949 [V804M] (P07949 whole entry V804M): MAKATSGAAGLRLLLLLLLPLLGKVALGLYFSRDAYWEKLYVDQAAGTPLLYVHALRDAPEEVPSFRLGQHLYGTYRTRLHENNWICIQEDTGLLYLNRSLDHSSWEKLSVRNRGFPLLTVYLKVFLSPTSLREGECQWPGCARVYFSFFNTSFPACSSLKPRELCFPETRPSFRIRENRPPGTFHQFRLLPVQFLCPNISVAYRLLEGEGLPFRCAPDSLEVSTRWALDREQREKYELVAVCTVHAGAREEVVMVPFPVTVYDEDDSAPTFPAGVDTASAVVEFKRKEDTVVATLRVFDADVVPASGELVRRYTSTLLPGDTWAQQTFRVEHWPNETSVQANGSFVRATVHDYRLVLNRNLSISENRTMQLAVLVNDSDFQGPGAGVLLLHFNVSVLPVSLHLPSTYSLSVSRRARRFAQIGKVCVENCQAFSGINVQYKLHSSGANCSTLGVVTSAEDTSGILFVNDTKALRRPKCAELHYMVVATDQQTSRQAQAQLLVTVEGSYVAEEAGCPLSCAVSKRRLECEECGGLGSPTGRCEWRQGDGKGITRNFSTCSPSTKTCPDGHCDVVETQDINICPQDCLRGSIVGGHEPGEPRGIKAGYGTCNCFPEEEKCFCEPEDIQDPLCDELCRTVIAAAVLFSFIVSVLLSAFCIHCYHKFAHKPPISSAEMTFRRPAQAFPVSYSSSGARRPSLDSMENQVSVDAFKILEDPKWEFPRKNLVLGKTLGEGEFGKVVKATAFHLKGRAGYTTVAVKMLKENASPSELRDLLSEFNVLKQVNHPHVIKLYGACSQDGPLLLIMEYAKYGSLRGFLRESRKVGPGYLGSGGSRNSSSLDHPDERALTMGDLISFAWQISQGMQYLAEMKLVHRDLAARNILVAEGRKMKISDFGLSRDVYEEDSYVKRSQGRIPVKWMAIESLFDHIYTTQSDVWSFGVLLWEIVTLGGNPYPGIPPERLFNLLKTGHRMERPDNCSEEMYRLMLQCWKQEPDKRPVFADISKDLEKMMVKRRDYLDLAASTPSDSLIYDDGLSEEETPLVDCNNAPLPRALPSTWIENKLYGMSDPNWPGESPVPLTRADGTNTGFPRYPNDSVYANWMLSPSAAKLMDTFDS
Sequence of Ribosomal protein S6 kinase alpha-6 (Homo sapiens) (Q9UK32 whole entry): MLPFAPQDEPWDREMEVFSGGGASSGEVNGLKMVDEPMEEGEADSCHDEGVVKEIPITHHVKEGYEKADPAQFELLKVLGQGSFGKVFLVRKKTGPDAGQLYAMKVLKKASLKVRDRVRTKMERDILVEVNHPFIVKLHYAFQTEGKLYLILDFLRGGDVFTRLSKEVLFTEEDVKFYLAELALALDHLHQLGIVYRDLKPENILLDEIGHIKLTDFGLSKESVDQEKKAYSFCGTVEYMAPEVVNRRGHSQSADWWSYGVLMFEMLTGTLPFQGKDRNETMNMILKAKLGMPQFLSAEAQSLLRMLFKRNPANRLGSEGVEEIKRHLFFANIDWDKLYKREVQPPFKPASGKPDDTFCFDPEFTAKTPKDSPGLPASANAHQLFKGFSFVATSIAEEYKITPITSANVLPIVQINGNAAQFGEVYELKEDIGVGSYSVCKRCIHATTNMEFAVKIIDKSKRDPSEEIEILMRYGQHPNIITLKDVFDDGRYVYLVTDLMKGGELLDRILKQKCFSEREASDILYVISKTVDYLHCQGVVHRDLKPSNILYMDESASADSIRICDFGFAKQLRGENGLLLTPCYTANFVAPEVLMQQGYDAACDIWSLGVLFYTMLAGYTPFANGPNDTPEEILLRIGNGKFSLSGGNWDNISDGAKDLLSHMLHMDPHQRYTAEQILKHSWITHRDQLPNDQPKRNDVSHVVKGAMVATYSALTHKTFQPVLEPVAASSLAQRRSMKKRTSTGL
Sequence of Serine/threonine-protein kinase ULK2 (Homo sapiens) (Q8IYT8 whole entry): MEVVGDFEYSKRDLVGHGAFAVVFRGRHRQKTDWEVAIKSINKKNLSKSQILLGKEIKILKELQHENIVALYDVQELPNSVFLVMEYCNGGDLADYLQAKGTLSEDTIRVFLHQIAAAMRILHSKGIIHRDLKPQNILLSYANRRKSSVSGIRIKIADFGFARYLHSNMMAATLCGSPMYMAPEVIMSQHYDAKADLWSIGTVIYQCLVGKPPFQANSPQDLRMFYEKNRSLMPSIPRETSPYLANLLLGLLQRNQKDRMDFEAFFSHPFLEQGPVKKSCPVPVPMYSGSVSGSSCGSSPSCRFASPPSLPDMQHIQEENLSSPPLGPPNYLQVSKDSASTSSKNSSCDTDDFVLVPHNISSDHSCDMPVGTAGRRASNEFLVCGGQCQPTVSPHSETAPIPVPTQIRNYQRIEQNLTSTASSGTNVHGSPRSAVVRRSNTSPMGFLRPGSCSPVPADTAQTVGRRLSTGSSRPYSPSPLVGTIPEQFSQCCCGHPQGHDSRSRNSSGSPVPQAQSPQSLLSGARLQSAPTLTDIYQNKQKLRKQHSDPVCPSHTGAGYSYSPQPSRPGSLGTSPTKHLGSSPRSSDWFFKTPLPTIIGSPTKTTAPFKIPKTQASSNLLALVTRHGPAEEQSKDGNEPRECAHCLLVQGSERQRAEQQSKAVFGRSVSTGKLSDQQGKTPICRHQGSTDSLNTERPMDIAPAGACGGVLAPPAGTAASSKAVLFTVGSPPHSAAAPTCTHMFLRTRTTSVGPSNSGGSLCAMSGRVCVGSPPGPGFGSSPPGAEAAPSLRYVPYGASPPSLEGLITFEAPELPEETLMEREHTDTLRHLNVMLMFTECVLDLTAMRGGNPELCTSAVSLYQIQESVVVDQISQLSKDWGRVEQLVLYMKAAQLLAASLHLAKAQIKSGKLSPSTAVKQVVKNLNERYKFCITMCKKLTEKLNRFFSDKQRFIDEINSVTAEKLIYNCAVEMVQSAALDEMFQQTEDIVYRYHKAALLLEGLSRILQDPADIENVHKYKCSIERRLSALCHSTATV
Sequence of cAMP-dependent protein kinase catalytic subunit PRKX (Homo sapiens) (P51817 whole entry): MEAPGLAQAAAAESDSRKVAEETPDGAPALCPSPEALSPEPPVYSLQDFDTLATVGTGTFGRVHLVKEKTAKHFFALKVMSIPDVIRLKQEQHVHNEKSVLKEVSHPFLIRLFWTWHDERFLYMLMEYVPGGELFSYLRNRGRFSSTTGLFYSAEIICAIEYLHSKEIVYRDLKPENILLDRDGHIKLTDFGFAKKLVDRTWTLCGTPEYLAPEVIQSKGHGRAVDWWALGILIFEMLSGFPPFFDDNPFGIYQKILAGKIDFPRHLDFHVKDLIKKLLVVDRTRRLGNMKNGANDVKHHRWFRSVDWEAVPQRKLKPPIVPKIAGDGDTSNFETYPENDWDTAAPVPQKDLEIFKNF

In the case of `O=C(Nc1cnc(Oc2ccc(F)cc2)nc1)N1CCc2ncccc2[C@@H]1c1ccc(F)cc1` [BAY-899], the residual activity [1] is reported as 93%, the residual activity [2] is reported as 83% and the residual activity [3] is reported as 100%. The residual activity [4] was 85%, the residual activity [5] was 79% and the residual activity [6] was 95%. For the same compound, the residual activity [7] was 100%, the inhibition [8] was 56.3% and the inhibition [9] was 1.65%. It also gave a residual activity [10] of 100%, a residual activity [11] of 97% and a residual activity [12] of 71%. The residual activity [13] was 79%, the residual activity [14] was 96% and the residual activity [15] was 85%. The residual activity [16] was 100%, the residual activity [17] was 93% and the residual activity [18] was 87%. It also gave a residual activity [19] of 93%, a residual activity [20] of 100% and a residual activity [21] of 88%. It also gave a residual activity [22] of 96%, a residual activity [23] of 96% and a residual activity [24] of 100%. It also gave a residual activity [25] of 100%, a residual activity [26] of 93% and a residual activity [27] of 97%. The residual activity [28] was 97%, the residual activity [29] was 94% and the residual activity [30] was 100%. The residual activity [31] was 88%, the residual activity [32] was 94% and the residual activity [33] was 91%. For the same compound, the residual activity [34] was 91%, the inhibition [35] was 28.1% and the residual activity [36] was 74%. It also gave a residual activity [37] of 83%, a residual activity [38] of 96% and a residual activity [39] of 100%. It also gave a residual activity [40] of 95%, a residual activity [41] of 82% and a residual activity [42] of 100%. For the same compound, the residual activity [43] was 82%, the residual activity [44] was 100% and the residual activity [45] was 91%.

`O=C(Nc1ccc(Oc2ccc(F)cc2)cc1)N1CCc2ncccc2[C@H]1c1ccc(F)cc1` [BAY-897] gave a residual activity [1] of 94%, a residual activity [2] of 100% and a residual activity [3] of 100%. The residual activity [4] was 88%, the residual activity [5] was 100% and the residual activity [6] was 92%. It also gave a residual activity [7] of 100%, an inhibition [8] of 79.3% and an inhibition [9] of -3.97%. It also gave a residual activity [10] of 100%, a residual activity [11] of 82% and a residual activity [12] of 82%. For the same compound, the residual activity [13] was 88%, the residual activity [14] was 98% and the residual activity [15] was 100%. For the same compound, the residual activity [16] was 96%, the residual activity [17] was 86% and the residual activity [18] was 81%. For the same compound, the residual activity [19] was 88%, the residual activity [20] was 100% and the residual activity [21] was 85%. The residual activity [22] was 95%, the residual activity [23] was 93% and the residual activity [24] was 100%. It also gave a residual activity [25] of 100%, a residual activity [26] of 98% and a residual activity [27] of 86%. For the same compound, the residual activity [28] was 93%, the residual activity [29] was 93% and the residual activity [30] was 100%. It also gave a residual activity [31] of 82%, a residual activity [32] of 94% and a residual activity [33] of 87%. The residual activity [34] was 97%, the inhibition [35] was 37.1% and the residual activity [36] was 74%. For the same compound, the residual activity [37] was 100%, the residual activity [38] was 79% and the residual activity [39] was 89%. It also gave a residual activity [40] of 99%, a residual activity [41] of 95% and a residual activity [42] of 100%. It also gave a residual activity [43] of 79%, a residual activity [44] of 92% and a residual activity [45] of 100%.
